Test results as given in article PMC6385310 (Scientific Reports, 2019).
Values joined by “and” are separate entries in the source; they are usually repeats but may differ in a detail not shown here. Equal entries are not always repeated. Where two headings read alike, the source gives them in different places.

Tests used:
in vitro = conditions: African green monkey
[1] = system: VEEV TC-83 virus expressing a luciferase reporter gene (TC-83-luc); test: microbe, parasite or virus in culture; assay type: cell-based, Venezuelan equine encephalitis virus
[2] = system: nuclear import of VEEV CP-GFP fusion protein; test: cells; assay type: cell-based; conditions: for inhibition at 200 µM: Venezuelan equine encephalitis virus, HeLa, 2 h, read-out: inhibition of nuclear import of CP-GFP (FRAP, Fn(rec)max); for inhibition of nuclear import of CP-GFP (FRAP, Fn(rec)max): 200 µM
VEEV TC83 = test: microbe, parasite or virus in culture; assay type: cell-based; conditions: Venezuelan equine encephalitis virus, Vero, 16 h, read-out: Titre reduction (%)
Vero cells [3] = conditions: cited from earlier work
[4] = system: VEEV TC-83 virus expressing a luciferase reporter gene (TC-83-luc); conditions: read-out: anti-VEEV activity EC50; cited from earlier work
[5] = system: VEEV CP nuclear accumulation; assay type: cell-based, Venezuelan equine encephalitis virus
Vero cells [6] = system: Vero cells
[7] = Venezuelan equine encephalitis virus, Vero, read-out: EC50, µM (cells printed ND)
[8] = Venezuelan equine encephalitis virus, Vero, read-out: EC50, concentration yielding 50% inhibition of viral replication
[9] = read-out: EC50, concentration yielding 50% inhibition of viral replication

Compound	CC50 (in vitro) [µM]	EC50 [1, 8] [µM]	inhibition at 10 µM (VEEV TC83) [%]	SI, selectivity index (CC50/EC50) [1]	EC50 [1, 9]	also measured
CN(C)c1ccc([C@H]2C[C@@]3(C)[C@@H](CC[C@@]3(O)C#CCO)[C@@H]3CCC4=CC(=O)CCC4=C32)cc1 [Compound 11]	> 100	–	–	–	–	detectable antiviral (anti-VEEV) activity, in words [1]: abolished any detectable antiviral activity; EC50 [1, 7]: > 100 µM
CN(C)c1ccc([C@H]2C[C@@]3(C)[C@@H](CC[C@@]3(O)C#CC(F)(F)F)[C@@H]3CCC4=CC(=O)CCC4=C32)cc1 [Compound 9, Trifluoromethylmifepristone]	> 100	17.8 ± 1.7	–	–	–	detectable antiviral (anti-VEEV) activity, in words [1]: did not significantly alter the activity of the analogue from 1
CC[Si](C#C[C@]1(O)CC[C@H]2[C@@H]3CCC4=CC(=O)CCC4=C3[C@@H](c3ccc(N(C)C)cc3)C[C@@]21C)(CC)CC [Compound 34]	> 100	–	95.8 ± 1.9	–	–	inhibition at 200 µM [2]: ~30%
CN(C)c1ccc([C@H]2C[C@@]3(C)[C@@H](CC[C@@]3(O)C#C[Si](C)(C)C)[C@@H]3CC[C@@]4(O)CC5(CCC4=C32)OCCO5)cc1 [Compound 30]	> 100	11.1 ± 1.9	88.4 ± 4.8	>9.0	–	–
CN(C)c1ccc([C@H]2C[C@@]3(C)[C@@H](CC[C@@]3(O)C#Cc3ccccc3)[C@@H]3CCC4=CC(=O)CCC4=C32)cc1 [Compound 38]	> 100	8.46 ± 1.7	69.7 ± 15.4	>11.82 and 8.5 ± 1.7 >100 >11.8	8.5 µM	–
CN(C)c1cccc([C@H]2C[C@@]3(C)[C@@H](CC[C@@]3(O)C#C[Si](C)(C)C)[C@@H]3CCC4=CC(=O)CCC4=C32)c1 [Compound 54]	> 100	6 ± 1.1	94.1 ± 7.1	>16.7	–	–
CN(C)c1ccc([C@H]2C[C@@]3(C)[C@@H](CC[C@@]3(O)C#CC(F)(F)F)[C@@H]3CC[C@@]4(O)CC5(CCC4=C32)OCCO5)cc1 [Compound 8]	> 100	27.6	–	27.6 ± 5.1 >100 >3.6	–	–
CC#C[C@]1(O)CC[C@H]2[C@@H]3CCC4=CC(=O)CCC4=C3[C@@H](c3ccc(NC)cc3)C[C@@]21C [Compound 6, Desmethyl-mifepristone, reference compound]	–	–	–	–	–	detectable antiviral (anti-VEEV) activity, in words [1]: eliminated any detectable antiviral activity
COc1ccc(C#C[C@]2(O)CC[C@H]3[C@@H]4CC[C@@]5(O)CC6(CCC5=C4[C@@H](c4ccc(N(C)C)cc4)C[C@@]32C)OCCO6)cc1 [Compound 37]	> 100	–	67.1 ± 12.2	–	–	inhibition of nuclear import of CP-GFP (FRAP, Fn(rec)max) [2]: did not significantly alter CP nuclear import dynamics
CC[Si](C#C[C@]1(O)CC[C@H]2[C@@H]3CC[C@@]4(O)CC5(CCC4=C3[C@@H](c3ccc(N(C)C)cc3)C[C@@]21C)OCCO5)(CC)CC [Compound 31]	> 100	4.7	93.9 ± 3.2	4.7 ± 0.5 >100 >21.5	–	–
CC(C)[Si](C#C[C@]1(O)CC[C@H]2[C@@H]3CC[C@@]4(O)CC5(CCC4=C3[C@@H](c3ccc(N(C)C)cc3)C[C@@]21C)OCCO5)(C(C)C)C(C)C [Compound 32]	> 100	22	89.7 ± 4.6	22.0 ± 6.1 >100 >4.5	–	–
CC#C[C@]1(O)CC[C@H]2[C@@H]3CCC4=CC(=O)CCC4=C3[C@@H](c3ccc(N(C)C)cc3)C[C@@]21C [Compound 1, mifepristone, reference compound]	165	19.9 ± 2.7	93.7 ± 19.6	–	19.9 ± 2.7 µM	inhibition at 200 µM [2]: ~30%; CC50 (Vero cells [3]): > 100 µM; EC50 [4]: 20 µM; nuclear accumulation of CP in infected cells (Fn/c) [5]: reduced the nuclear accumulation of CP
CN(C)c1ccc([C@H]2C[C@@]3(C)[C@@H](CC[C@@]3(O)C#Cc3ccccc3)[C@@H]3CC[C@@]4(O)CC5(CCC4=C32)OCCO5)cc1 [Compound 36]	> 100	7.2	53.9 ± 18.8	7.2 ± 2.3 >100 >14.0	–	–
C[C@]12C[C@H](c3ccc(-c4ccccc4)cc3)C3=C4CCC(=O)C=C4CC[C@H]3[C@@H]1CC[C@@]2(O)C#C[Si](C)(C)C [Compound 53]	> 100	5 ± 0.7	91.1 ± 5.4	>20.1	–	–
CC(C)[Si](C#C[C@]1(O)CC[C@H]2[C@@H]3CCC4=CC(=O)CCC4=C3[C@@H](c3ccc(N(C)C)cc3)C[C@@]21C)(C(C)C)C(C)C [Compound 35]	> 100	16.3 ± 4.7	–	–	16.3 µM	–
C/C=C\[C@]1(O)CC[C@H]2[C@@H]3CCC4=CC(=O)CCC4=C3[C@@H](c3ccc(N(C)C)cc3)C[C@@]21C [Compound 7, Aglepristone, reference compound]	–	–	–	–	25.3 µM	CC50 (Vero cells [6]): > 100 µM
CN(C)c1ccc([C@H]2C[C@@]3(C)[C@@H](CC[C@@]3(O)/C=C\CO)[C@@H]3CCC4=CC(=O)CCC4=C32)cc1 [Compound 13, Lilopristone, reference compound]	> 100	–	–	–	–	detectable antiviral (anti-VEEV) activity, in words [1]: abolished any detectable antiviral activity; EC50 [1, 7]: > 100 µM
COc1ccc(C2C[C@@]3(C)[C@@H](CC[C@@]3(O)C#C[Si](C)(C)C)[C@@H]3CCC4=CC(=O)CCC4=C23)cc1 (stereo partly drawn) [Compound 51]	> 100	22.5 ± 2.4	–	>4.5	–	–
C[C@]12C[C@H](c3ccccc3)C3=C4CCC5(C[C@]4(O)CC[C@H]3[C@@H]1CC[C@@]2(O)C#C[Si](C)(C)C)OCCO5 [Compound 45]	> 100	2.6 ± 0.4	95.4 ± 4.1	>38.7	–	–
CC(=O)O[C@]1(C(C)=O)CC[C@H]2[C@@H]3CCC4=CC(=O)CCC4=C3[C@@H](c3ccc(N(C)C)cc3)C[C@@]21C [Compound 21, Ulipristal Acetate, reference compound]	> 100	11.5	–	>8.67	11.5 ± 7 µM	–
COc1ccc(C#C[C@]2(O)CC[C@H]3[C@@H]4CCC5=CC(=O)CCC5=C4[C@@H](c4ccc(N(C)C)cc4)C[C@@]32C)cc1 [Compound 39]	> 100	< 10	47.4 ± 21.4	–	5.23 µM and 5.2 µM	inhibition of nuclear import of CP-GFP (FRAP, Fn(rec)max) [2]: did not significantly alter CP nuclear import dynamics
CN(C)c1ccc([C@H]2C[C@@]3(C)[C@@H](CC[C@@]3(O)C#C[Si](C)(C)C)[C@@H]3CCC4=CC(=O)CCC4=C32)cc1 [Compound 33]	> 100	< 10	–	–	8.49 µM and 8.5 µM	inhibition at 200 µM [2]: ~30%
